The structures appear in SMILES notation.

The target in test [1] is T1, menin/MLL (terbium chelate-labeled menin, FITC-MBM1 peptide) (Homo sapiens, UniProt O00255, T541A).
T1 construct: Menin (a.a 1-610-6xhis tag)
T1 sequence (O00255 with tags, fused parts or gaps T541A): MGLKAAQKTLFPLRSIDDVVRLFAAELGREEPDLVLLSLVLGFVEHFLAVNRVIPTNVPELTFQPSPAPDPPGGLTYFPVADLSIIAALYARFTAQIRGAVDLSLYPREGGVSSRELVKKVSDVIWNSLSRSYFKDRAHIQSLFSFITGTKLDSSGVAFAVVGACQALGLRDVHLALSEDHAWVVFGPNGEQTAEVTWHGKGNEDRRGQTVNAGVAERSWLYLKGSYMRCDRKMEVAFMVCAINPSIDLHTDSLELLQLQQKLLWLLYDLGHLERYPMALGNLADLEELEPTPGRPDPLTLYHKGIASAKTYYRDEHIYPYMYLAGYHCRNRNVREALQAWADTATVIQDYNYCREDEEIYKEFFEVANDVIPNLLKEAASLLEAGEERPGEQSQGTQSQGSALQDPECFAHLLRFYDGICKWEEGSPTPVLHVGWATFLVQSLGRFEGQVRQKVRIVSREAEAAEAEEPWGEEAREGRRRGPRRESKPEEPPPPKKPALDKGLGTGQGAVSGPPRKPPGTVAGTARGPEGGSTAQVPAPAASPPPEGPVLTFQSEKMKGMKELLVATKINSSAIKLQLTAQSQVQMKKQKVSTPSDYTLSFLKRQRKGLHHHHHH
Nature of the test: Menin/MLL homogenous time-resolved fluorescence (HTRF) assay. It counts as binding. The note with it: 30 min incubation. In a few lines:
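Percent inhibition, calculated from the 520/490 nm HTRF ratio against high and low controls, was fitted for IC50 with a 0.1 nM detection limit. Reactions held 200 pM Tb-menin and 75 nM FITC-MBM1 in pH 7.5 Tris buffer with 0.5% DMSO.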
On the technique in general: Time-resolved FRET reads energy transfer from a long-lived donor to a nearby acceptor.

The subject of the next test is MOLM14 cells. Briefly: Proliferation assay, spheroid-like growth, MOLM14 (MLL-AF9 rearranged). It counts as cell-based, human. Particulars: Homo sapiens, MOLM-14, 192 h, 8 days, confluence as measure of spheroid size, read-out: spheroid assay_OneTime MOLM14 IC50. In a few lines:
(§1)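 Seed cells at linear-growth densities in low-attachment wells; add test compound at several concentrations, normalized to 0.3% DMSO; incubate 8 days at 37 °C; image spheroids and measure confluence; calculate absolute IC50 against DMSO and reference-compound controls.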

The next test has as its system KO-52 cells. Briefly: Proliferation assay, spheroid-like growth, KO-52 (MLL wildtype control cell line). Type of test: cell-based, human. The note with it: Homo sapiens, 192 h, KO-52 control cells, 8 days, confluence as measure of spheroid size; read-out: spheroid assay_OneTime KO-52 IC50. In a few lines:
as §1

Consider `CC(C)[C@H]([C@H]1C[C@@H](NC2CC2)C1)N1CC2(CCN(c3ncnnc3Oc3ccc(F)cc3-c3ncccc3C3CC3)C2)C1` (single isomer, unassigned) [Compound 148], for which the IC50 in test [1] worked out at 0.2 nM; with MOLM14 cells, 3 nM; in the test on KO-52 cells it was 0.61 µM.
In the same order, the values of `CC(C)[C@H]([C@H]1C[C@@H](N2C[C@H]3COC[C@H]3C2)C1)N1CC2(CCN(c3ncnnc3Oc3ccc(F)cc3-c3ncccc3C3CC3)C2)C1` (single isomer, unassigned) [Compound 149] are 0.1 nM, less than 2 nM and 0.51 µM.
In the case of `CC(C)[C@H]([C@H]1C[C@H](N2C[C@H]3COC[C@H]3C2)C1)N1CC2(CCN(c3ncnnc3Oc3ccc(F)cc3-c3ncccc3C3CC3)C2)C1` (single isomer, unassigned) [Compound 150], the IC50 in test [1] came out at 0.1 nM; in the test with MOLM14 cells, 120 nM; in the test on KO-52 cells, 3.14 µM.
Take `CC(C)[C@H]([C@H]1C[C@@H](N2CC3(COC3)C2)C1)N1CC2(CCN(c3ncnnc3Oc3ccc(F)cc3-c3ncccc3C3CC3)C2)C1` (single isomer, unassigned) [Compound 151]: the IC50 turned out to be 0.1 nM in test [1], 4 nM with MOLM14 cells and 2.03 µM in the test with KO-52 cells.
As to `CC(C)[C@H]([C@H]1C[C@H](N2CC3(COC3)C2)C1)N1CC2(CCN(c3ncnnc3Oc3ccc(F)cc3-c3ncccc3C3CC3)C2)C1` (single isomer, unassigned) [Compound 152], the values for the IC50 (in test [1]; in the test on MOLM14 cells; in the test on KO-52 cells) were 0.2 nM, 49 nM and 3.96 µM, respectively.
The like results for `CC(C)[C@@H]([C@H]1C[C@@H](N(C)C)C1)N1CC2(CCN(c3ncnnc3Oc3ccc(F)cc3-c3ncccc3C3CC3)C2)C1` (single isomer, unassigned) [Compound 153] were, in that order, 5.3 nM, 730 nM and 4.83 µM.
Regarding `CC(C)[C@H](C1CC2(C1)CN(CC1COC1)C2)N1CC2(CCN(c3ncnnc3Oc3ccc(F)cc3-c3cncnc3C3CC3)C2)C1` (single isomer, unassigned) [Compound 154], the IC50 in test [1] is 0.4 nM; in the test with MOLM14 cells, 230 nM; in the test with KO-52 cells, 9.08 µM.
As to `CC(C)[C@H](C1CC2(CCN2CC2COC2)C1)N1CC2(CCN(c3ncnnc3Oc3ccc(F)cc3-c3cncnc3C3CC3)C2)C1` (single isomer, unassigned) [Compound 155], the results for the IC50 (in test [1]; in the test on MOLM14 cells; in the test with KO-52 cells) were 2.3 nM, 570 nM and more than 15 µM, respectively.
`CC(C)[C@@H](C1CC2(C1)CN(CC1COC1)C2)N1CC2(CCN(c3ncnnc3Oc3ccc(F)cc3-c3cncnc3C3CC3)C2)C1` (single isomer, unassigned) [Compound 157]: the IC50 is 0.2 nM in test [1], 120 nM in the test with MOLM14 cells and 7.77 µM in the test with KO-52 cells.
The like results for `CC(C)[C@@H](C1CC2(CCN2CC2COC2)C1)N1CC2(CCN(c3ncnnc3Oc3ccc(F)cc3-c3cncnc3C3CC3)C2)C1` (single isomer, unassigned) [Compound 158] were, in that order, 0.8 nM, 480 nM and more than 15 µM.
The like results for `CC(C)C(C1CC(C)(O)C1)N1CC2(CCN(c3ncnnc3Oc3ccc(F)cc3-c3cncnc3C3CC3)C2)C1` (single isomer, unassigned) [Compound 159] were, in that order, 0.3 nM, 110 nM and 1.1 µM.
In the same order, the values of `CC(C)[C@@H](C1CC(C)(O)C1)N1CC2(CCN(c3ncnnc3Oc3ccc(F)cc3-c3cncnc3C3CC3)C2)C1` (single isomer, unassigned) [Compound 160] are 23.2 nM, more than 3750 nM and more than 15 µM.
`CC(C)[C@H]([C@H]1C[C@@H](NC2CCOCC2)C1)N1CC2(CCN(c3ncnnc3Oc3ccc(F)cc3-c3cncnc3C3CC3)C2)C1` (single isomer, unassigned) [Compound 163]: the IC50 in test [1] was found to be 0.1 nM; in the test with MOLM14 cells, 11 nM; in the test on KO-52 cells it was 4.37 µM.
For `CC(C)[C@H]([C@H]1C[C@@H](N(C)C2CCOCC2)C1)N1CC2(CCN(c3ncnnc3Oc3ccc(F)cc3-c3cncnc3C3CC3)C2)C1` (single isomer, unassigned) [Compound 164], the IC50 came out at 0.1 nM in test [1], 10 nM in the test on MOLM14 cells and 1.41 µM with KO-52 cells.
Regarding `CC(C)[C@@H]([C@H]1C[C@@H](NC2CCOCC2)C1)N1CC2(CCN(c3ncnnc3Oc3ccc(F)cc3-c3cncnc3C3CC3)C2)C1` (single isomer, unassigned) [Compound 165], the figures for the IC50 (in test [1]; in the test on MOLM14 cells; with KO-52 cells) were 0.8 nM, 200 nM and 9.91 µM, respectively.
The like results for `CC(=O)N1CC2(C1)CN([C@H]1C[C@@H]([C@@H](C(C)C)N3CC4(CCN(c5ncnnc5Oc5ccc(F)cc5-c5cncnc5C5CC5)C4)C3)C1)C2` (single isomer, unassigned) [Compound 170] were, in that order, 0.1 nM, 5 nM and 8.68 µM.
Consider `CC(=O)N1CC2(C1)CN([C@H]1C[C@H]([C@@H](C(C)C)N3CC4(CCN(c5ncnnc5Oc5ccc(F)cc5-c5cncnc5C5CC5)C4)C3)C1)C2` (single isomer, unassigned) [Compound 171], for which the IC50 was 0.1 nM in test [1], 31 nM in the test on MOLM14 cells and more than 15 µM with KO-52 cells.
In the same order, the values of `CC(=O)N1CCC12CN([C@H]1C[C@@H]([C@@H](C(C)C)N3CC4(CCN(c5ncnnc5Oc5ccc(F)cc5-c5cncnc5C5CC5)C4)C3)C1)C2` (single isomer, unassigned) [Compound 172] are 0.1 nM, 22 nM and 10.1 µM.
The like results for `CC(=O)N1CCC12CN([C@H]1C[C@H]([C@@H](C(C)C)N3CC4(CCN(c5ncnnc5Oc5ccc(F)cc5-c5cncnc5C5CC5)C4)C3)C1)C2` (single isomer, unassigned) [Compound 173] were, in that order, 0.2 nM, 150 nM and more than 15 µM.
As to `CC(=O)N1CCCC12CN([C@H]1C[C@@H]([C@@H](C(C)C)N3CC4(CCN(c5ncnnc5Oc5ccc(F)cc5-c5cncnc5C5CC5)C4)C3)C1)C2` (single isomer, unassigned) [Compound 174], the IC50 in test [1] stood at 0.1 nM; with MOLM14 cells, 9 nM; with KO-52 cells, 7.4 µM.
For the molecule `CC(=O)N1CCCC12CN([C@H]1C[C@H]([C@@H](C(C)C)N3CC4(CCN(c5ncnnc5Oc5ccc(F)cc5-c5cncnc5C5CC5)C4)C3)C1)C2` (single isomer, unassigned) [Compound 175], the IC50 in test [1] is 0.1 nM; with MOLM14 cells, 110 nM; in the test with KO-52 cells, more than 15 µM.
In the case of `CC(=O)N[C@H]1C[C@@H]([C@@H](C(C)C)N2CC3(CCN(c4ncnnc4Oc4ccc(F)cc4-c4nccnc4C4CC4)C3)C2)C1` (single isomer, unassigned) [Compound 177], the values for the IC50 (in test [1]; in the test with MOLM14 cells; in the test on KO-52 cells) were 0.2 nM, 37 nM and 8.87 µM, respectively.
For `CC(=O)N[C@H]1C[C@@H]([C@H](C(C)C)N2CC3(CCN(c4ncnnc4Oc4ccc(F)cc4-c4nccnc4C4CC4)C3)C2)C1` (single isomer, unassigned) [Compound 178], the IC50 was 108 nM in test [1], more than 940 nM in the test with MOLM14 cells and more than 15 µM with KO-52 cells.
In the same order, the values of `CC(=O)N[C@H]1C[C@@H]([C@@H](C(C)C)N2CC3(CCN(c4ncnnc4Oc4ccc(F)cc4-c4ncncc4C4CC4)C3)C2)C1` (single isomer, unassigned) [Compound 180] are 0.3 nM, 62 nM and 10.1 µM.
For the molecule `CC(=O)N[C@H]1C[C@@H]([C@H](C(C)C)N2CC3(CCN(c4ncnnc4Oc4ccc(F)cc4-c4ncncc4C4CC4)C3)C2)C1` (single isomer, unassigned) [Compound 181], the IC50 in test [1] was 96.9 nM; in the test on MOLM14 cells, more than 940 nM; with KO-52 cells it was more than 15 µM.
The like results for `CC(C)[C@H]([C@H]1C[C@@H](NC(=O)C2CC2)C1)N1CC2(CCN(c3ncnnc3Oc3ccc(F)cc3-c3cnncc3C3CC3)C2)C1` (single isomer, unassigned) [Compound 185] were, in that order, 0.1 nM, 6 nM and 6.04 µM.

By IC50 is commonly meant the concentration needed to halve the response being measured.

The values are drawn from patent US20240417405A1, “Substituted Spiro Derivatives” (Janssen Pharmaceutica NV, priority 2021, published 2024).
